biological target: T1, Human Recombinant Matriptase 2 (Homo sapiens, UniProt Q8IU80); assay: Matriptase 2 fluorescence based inhibition assay, Method B (50 mM TRIS pH 7.5, 150 mM NaCl, 0.01% gelatin); format: biochemical; details: 1 uM compound; Assay Used = B (Method B); read-out: Mar-2 % inhibition at 1 uM
T1 construct: purchased Enzo Life Sciences (an in-house preparation was also used) ALX-201-752-1
T1 sequence (Q8IU80 1-811): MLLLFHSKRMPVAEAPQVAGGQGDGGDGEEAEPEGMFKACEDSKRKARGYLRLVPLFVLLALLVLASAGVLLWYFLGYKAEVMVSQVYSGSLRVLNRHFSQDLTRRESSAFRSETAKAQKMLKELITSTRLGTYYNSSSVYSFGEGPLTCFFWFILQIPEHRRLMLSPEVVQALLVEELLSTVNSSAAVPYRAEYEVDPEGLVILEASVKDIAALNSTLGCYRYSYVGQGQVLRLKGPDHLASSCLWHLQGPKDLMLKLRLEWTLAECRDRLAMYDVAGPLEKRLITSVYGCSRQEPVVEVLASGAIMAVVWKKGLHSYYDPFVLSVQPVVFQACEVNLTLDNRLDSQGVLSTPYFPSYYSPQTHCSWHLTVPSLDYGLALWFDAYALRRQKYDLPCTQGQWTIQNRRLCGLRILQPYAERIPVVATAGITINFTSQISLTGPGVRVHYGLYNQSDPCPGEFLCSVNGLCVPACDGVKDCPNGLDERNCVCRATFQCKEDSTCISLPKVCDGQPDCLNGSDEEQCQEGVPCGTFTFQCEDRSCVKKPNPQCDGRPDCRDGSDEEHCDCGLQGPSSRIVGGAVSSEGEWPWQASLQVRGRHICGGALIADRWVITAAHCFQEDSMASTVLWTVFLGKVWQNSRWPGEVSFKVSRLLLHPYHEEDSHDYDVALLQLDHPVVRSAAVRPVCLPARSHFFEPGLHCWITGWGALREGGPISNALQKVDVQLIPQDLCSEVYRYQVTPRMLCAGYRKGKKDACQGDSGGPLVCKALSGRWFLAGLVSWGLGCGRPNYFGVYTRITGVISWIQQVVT
Procedure, shortened: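 Commercial (7 nM) or in-house (15 nM) enzyme preincubated 30 min with compound at 25° C, then 100 μM Boc-Gln-Ala-Arg-AMC added; fluorescence (Ex 360/Em 480 nm) read at 60 min. 1% DMSO final. IC50 from variable-slope sigmoidal fit of % inhibition.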

| Compound | inhibition at 1 µM [%] |
| --- | --- |
| N=C(N)c1ccc2cc(C(=O)O)n(Cc3cc(Cc4ccccc4)cc4ccccc34)c2c1 [Compound I-649] | 0 to 25 |
| CCOC(=O)c1cc2ccc(/C(N)=N/O)cc2n1Cc1cccc2ccccc12 [Compound I-675, Ethyl (Z)-6-(N′-hydroxycarbamimidoyl)-1-(naphthalen-1-ylmethyl)-1H-indole-2-carboxylate] | 0 to 25 |
| N=C(N)c1ccc2cc(C(=O)O)n(Cc3cc(Oc4ccc(N)cc4F)cc4ccccc34)c2c1 [Compound I-639] | 50 to 75 |
| N=C(N)Nc1ccc2cc(C(=O)N[C@H]3CC[C@H](N)CC3)n(Cc3cccc4ccccc34)c2c1 [Compound I-620, N-((1r,4r)-4-aminocyclohexyl)-6-guanidino-1-(naphthalen-1-ylmethyl)-1H-indole-2-carboxamide] | 0 to 25 |
| CCn1c(C(=O)N[C@H]2CC[C@H](N)CC2)c(Cc2cccc3ccccc23)c2cc(C(=N)NN)ccc21 [Compound I-664] | 0 to 25 |
| N=C(N)c1ccc2cc(C(=O)N[C@H]3CC[C@H](N)CC3)n(C[C@H]3CCc4ccccc43)c2c1 (racemic) [Compound I-616] | 25 to 50 |
| N=C(N)c1ccc2cc(C(=O)N[C@H]3CC[C@H](N)CC3)n(Cc3cccc4cc(OCCCc5ccccc5)ccc34)c2c1 [Compound I-770] | 50 to 75 |
| N=C(N)c1ccc2cc(C(=O)O)n(Cc3cc(Oc4ccccc4Cl)cc4ccccc34)c2c1 [Compound I-661] | 25 to 50 |
| Cn1c(C(=O)O)c(Cc2cc(Oc3ccccc3)cc3ccccc23)c2cc(C(=N)N)ccc21 [Compound I-606] | 25 to 50 |
| N=C(N)c1ccc2cc(C(=O)O)n(Cc3c[nH]c4ccccc34)c2n1 [Compound I-667] | 25 to 50 |
| N=C(N)c1ccc2cc(CC(=O)O)n(Cc3cccc4ccccc34)c2c1 [Compound I-716, 2-(6-carbamimidoyl-1-(naphthalen-1-ylmethyl)-1H-indol-2-yl)acetic Acid] | 75 to 100 |
| CC(C)COC(=O)NC(=N)c1ccc2cc(C(=O)O)n(Cc3cccc4ccccc34)c2c1 [Compound I-791] | 0 to 25 |
| CC(=O)N[C@H]1CC[C@H](NC(=O)c2cc3ccc(C(=N)N)cc3n2Cc2cccc3ccccc23)CC1 [Compound I-754] | 50 to 75 |
| CCCCCCOC(=O)NC(=N)c1ccc2cc(C(=O)O)n(Cc3cccc4ccccc34)c2c1 [Compound I-720, Potassium 6-(N-((hexyloxy)carbonyl)carbamimidoyl)-1-(naphthalen-1-ylmethyl)-1H-indole-2-carboxylate] | 0 to 25 |
| CC(C)(C)S(=O)(=O)c1cccc2c(Cn3c(C(=O)N[C@H]4CC[C@H](N)CC4)cc4ccc(C(=N)N)cc43)cccc12 [Compound I-742] | 50 to 75 |
| N=C(N)c1ccc2cc(C(=O)O)n(Cc3ccc(Oc4ccccc4)c4ccccc34)c2n1 [Compound I-679] | 25 to 50 |

same assay, conditions: 1 uM compound; Assay Used = B; read-out: Mar-2 % inhibition at 1 uM

| Compound | inhibition at 1 µM [%] |
| --- | --- |
| CC(C)(C)OC(=O)NC(=N)c1ccc2cc(C(=O)N3CC[C@H](NC(=O)OC(C)(C)C)C3)n(Cc3cccc4ccccc34)c2c1 (stereo in doubt) [Compound I-428] | 0 to 25 |
| COC(=O)NCCNC(=O)c1cc2ccc(C(=N)N)cc2n1Cc1cccc2ccccc12 [Compound I-587] | 75 to 100 |
| CCNC(=N)c1ccc2cc(C(=O)N[C@H]3CC[C@H](N)CC3)n(Cc3ccc4ccccc4c3)c2c1 [Compound I-413, N-((1r,4r)-4-aminocyclohexyl)-6-(N-ethylcarbamimidoyl)-1-(naphthalen-2-ylmethyl)-1H-indole-2-carboxamide] | 25 to 50 |
| CCOC(=O)c1cc2ccc(/C(N)=N/C#N)cc2n1Cc1cc(Oc2ncccn2)cc2ccccc12 [Compound I-558, ethyl (Z)-6-(N′-cyanocarbamimidoyl)-1-((3-(pyrimidin-2-yloxy)naphthalen-1-yl)methyl)-1H-indole-2-carboxylate] | 0 to 25 |
| NCc1ccc2cc(C(=O)O)n(Cc3cccc4ccccc34)c2c1 [Compound I-538, 6-(aminomethyl)-1-(naphthalen-1-ylmethyl)-1H-indole-2-carboxylic Acid] | 25 to 50 |
| N=C(N)c1ccc2cc(C(=O)NCc3ccc(CO)cc3)n(Cc3cccc4ccccc34)c2c1 [Compound I-435] | 50 to 75 |
| NCc1ccc2cc(C(=O)NCC3CCNCC3)n(-c3ccc4ccccc4c3)c2c1 [Compound I-537] | 0 to 25 |
| N=C(N)c1ccc2c(C(N)=O)c(C(=O)N[C@H]3CC[C@H](N)CC3)n(Cc3cccc4ccccc34)c2c1 [Compound I-513, N2-((1r,4r)-4-aminocyclohexyl)-6-carbamimidoyl-1-(naphthalen-1-ylmethyl)-1H-indole-2,3-dicarboxamide] | 25 to 50 |
| N=C(N)c1ccc2cc(C(=O)N[C@H]3CC[C@H](N)CC3)n(Cc3ccc(C(N)=O)cc3)c2c1 [Compound I-500] | 25 to 50 |
| N=C(NC(=O)OCC(Cl)(Cl)Cl)c1ccc2cc(C(=O)O)n(Cc3cc(Oc4ncccn4)cc4ccccc34)c2c1 [Compound I-552] | 0 to 25 |
| N=C(N)c1ccc2cc(C(=O)N[C@H]3CC[C@H](N)CC3)n(-c3cccc4ccccc34)c2c1 [Compound I-415, N-((1r,4r)-4-aminocyclohexyl)-6-carbamimidoyl-1-(naphthalen-1-yl)-1H-indole-2-carboxamide] | 25 to 50 |
| N=C(N)c1ccc2c(C(=O)O)c(C(=O)N[C@H]3CC[C@H](N)CC3)n(Cc3cccc4ccccc34)c2c1 [Compound I-512, 2-(((1r,4r)-4-aminocyclohexyl)carbamoyl)-6-carbamimidoyl-1-(naphthalen-1-ylmethyl)-1H-indole-3-carboxylic Acid] | 50 to 75 |
| N=C(N)c1ccc2cc(S(=O)(=O)N(Cc3cccc4ccccc34)[C@H]3CC[C@H](N)CC3)n(Cc3cccc4ccccc34)c2c1 [Compound I-523] | 0 to 25 |
| CCOC(=O)NC(=N)c1ccc2cc(C(=O)OCC)n(Cc3cc(Oc4ncccn4)cc4ccccc34)c2c1 [Compound I-559] | 25 to 50 |
| N=C(N)c1ccc2cc(C(=O)N[C@H]3CC[C@H](N)CC3)n(Cc3ccnc4ccccc34)c2c1 [Compound I-499] | 50 to 75 |
| N=C(N)c1ccc2cc(C(=O)Nc3ccc(NC(=O)c4ccccn4)cc3)n(Cc3cccc4ccccc34)c2c1 [Compound I-430] | 50 to 75 |
| N=C(N)c1ccc2cc(C(=O)NC3CC4CC3CN4)n(Cc3cccc4ccccc34)c2c1 (centres unmarked) [Compound I-480] | 75 to 100 |
| N=C(N)c1ccc2cc(C(=O)N[C@@H]3CCNC3)n(Cc3cccc4ccccc34)c2c1 [Compound I-433] | 75 to 100 |
| N=C(N)c1ccc2cc(C(=O)NCCN3CCCCC3)n(Cc3cccc4ccccc34)c2c1 [Compound I-481] | 75 to 100 |
| N=C(N)c1ccc2cc(C(N)=O)n(Cc3cccc4ccccc34)c2c1 [Compound I-437] | 75 to 100 |
| N=C(N)c1ccc2cc(C(=O)N[C@H]3CC[C@H](N)CC3)n(Cc3cc(Cl)cc(Cl)c3)c2c1 [Compound I-505] | 25 to 50 |
| N=C(N)c1ccc2cc(C(=O)N[C@H]3CC[C@H](C(=O)O)CC3)n(Cc3cccc4ccccc34)c2c1 [Compound I-473] | 25 to 50 |
| N=C(N)c1ccc2cc(C(=O)O)n(Cc3cc(Oc4ncc(F)cn4)cc4ccccc34)c2c1 [Compound I-571] | 50 to 75 |
| N=C(N)c1ccc2cc(C(=O)N3CCC(CO)CC3)n(Cc3cccc4ccccc34)c2c1 [Compound I-444] | 25 to 50 |

same assay, conditions: at 1 uM; Assay Used = B; read-out: Mar-2 % inhibition at 1 uM

| Compound | inhibition at 1 µM [%] |
| --- | --- |
| N=C(N)c1ccc(CNC(=O)c2cc3ccc(C(=N)N)cc3n2Cc2cccc3ccccc23)cc1 [Compound I-395] | 75 to 100 |
| N=C(N)c1ccc2cc(C(=O)N[C@H]3CC[C@H](N)CC3)n(S(=O)(=O)c3cccc4ccccc34)c2c1 [Compound I-396, N-((1r,4r)-4-aminocyclohexyl)-6-carbamimidoyl-1-(naphthalen-1-ylsulfonyl)-1H-indole-2-carboxamide] | 25 to 50 |

same assay, conditions: compound at 1 uM; Assay Used: B; read-out: Mar-2 % inhibition at 1 uM

| Compound | inhibition at 1 µM [%] |
| --- | --- |
| N=C(N)c1ccc2cc(C(=O)N[C@H]3CC[C@H](N)CC3)n(Cc3cccc4sc(CO)cc34)c2c1 [Compound I-813, N-((1r,4r)-4-aminocyclohexyl)-6-carbamimidoyl-1-((2-(hydroxymethyl)benzo[b]thiophen-4-yl)methyl)-1H-indole-2-carboxamide] | 50 to 75 |
| CN(C)CCCOc1ccc2c(Cn3c(C(=O)O)cc4ccc(C(=N)N)cc43)cccc2c1 [Compound I-808] | 50 to 75 |
